“Also recorded” adds a separate entry of the source.
Columns and labels:
BRD4 [1] = target: T1, BRD4 (Homo sapiens, UniProt O60885); test: Summary of BRD4 degradation by CURE-PRO pairs, estimated from Western Blot or WES; type: cell-based; set-up: endogenous in cells; settings: for Degradation of BRD4, combination with CRBN ligand 8066: Table 1, aryl-boronic acid BRD4 ligand + 8066; for Degradation of BRD4, combination with CRBN ligand 8047: Table 1, aryl-boronic acid BRD4 ligand + 8047; for Degradation of BRD4, combination with CRBN ligand 8046: Table 1, aryl-boronic acid BRD4 ligand + 8046; for Degradation of BRD4, combination with VHL ligand 8305: Table 3, aryl-boronic acid BRD4 ligand + 8305
Procedure: (§1) Namalwa, Ramosm HeLa, MCF7, or HT29 HCT116 cells (2.5-3×10^6) were treated for 24 hours with the indicated compounds solubilized in DMSO. The cells were washed in ice-cold PBS and were then lysed in RIPA lysis buffer (150 mM NaCl, 5 mM EDTA, 1% NP-40, 0.5% sodium deoxycholate, 0.1% SDS, 50 mM Tris, pH 8.0.) with Roche protease inhibitor complete cocktail and phosphatase inhibitors (10 mM sodium fluoride, 10 mM sodium pyrophosphate, 1 mM sodium orthovanadate and 20 mM β-glycerophosphate). The total protein concentrations were determined by Bradford Protein Assay (Pierce) and 10-20 μg of protein was loaded onto 4-15% Tris-Glycine gradient gels (Biorad). After standard gel electrophoresis, the separated proteins were transferred to PVDF membrane by wet transfer. The immunoblots were then blocked for 1 hour in 5% skim milk in TBST or 5% BSA in TBST, according to manufacturer's instructions, before an overnight incubation at 4° C. with indicated antibodies and membranes. Membranes were then incubated with the appropriate horseradish peroxidase-conjugated secondary antibodies (1:5,000 dilution) for 1 h at room temperature and the bands were visualized using the Clarity Max Western ECL Substrate (Biorad) and the ChemiDoc Imaging System (Biorad). Signal was detected with ECL Western Blotting Substrate (Pierce) and X-ray film processed with a Konica SRX-101 X-ray film processor or captured by Bio-Rad's Chemidoc Imaging system.
WES Simple analysis was performed on WES system (ProteinSimple-Biotechne) according to the manufacturer's instructions. Total protein concentrations of cell lysates were determined by the Pierce BCA kit (Thermo Fisher). 3 μL of 0.3 μg/μL of the protein lysate was loaded onto a 12- to 230-kDa WES assay plate (ProteinSimple) where 300 nL sample was withdrawn through a capillary, subjected to electrophoretic separation of proteins by size, and followed by the simultaneous, HRP-based detection of proteins using the Anti-Rabbit Detection Module (Proteinsimple: #DM-001). The electropherograms were checked then the automatic peak detection was manually corrected if it was required.
A black check mark indicates efficacy of 30% to 70% or higher protein degradation.

BRD4 [2] = target: T1, BRD4; test: CURE-PRO-mediated BRD4 degradation in HeLa cells, Western blot; type: cell-based; set-up: endogenous in cells; host or cells: HeLa; settings: 24 h
Procedure: All cell lines were purchased from ATCC or DSMZ and grown at 37° C. with 5% CO2. Human HeLa cells were cultured in complete growth medium (Dulbecco's modified Eagle's medium (DMEM) supplemented with 10% FBS); MCF7 cells were cultured in complete growth medium (Dulbecco's modified Eagle's medium (DMEM) supplemented with 10% FBS and 0.01 mg/ml human recombinant insulin (Sigma Aldrich); Namalwa and Ramos cells were cultured in complete growth medium (RPMI 1640 medium supplemented with 10% FBS); HCT116 and HT29 cells were cultured in complete growth medium (McCoy's 5a Medium supplemented with 10% FBS). For cellular degradation of BRD4 studies cells were seeded in a 12-well plate at 70-80% confluency, allowed to attach overnight, and incubated with the indicated compounds for the indicated time. When indicated, a 15-minute pretreatment with 10 μM pomalidomide, 10 μM VHL298, 10 μM Nutlin3a, 1 μM MG-132 or 1 μM Carfilzomib was performed before the addition of CURE-PROs. For washout studies, after CURE-PRO treatment, media was aspirated and incubated with complete medium for the indicated time before lysis.
as §1
HeLa cells (2.5×10^6) were treated for 24 hours with the sample compounds solubilized in DMSO. Compounds were added at 1-10 μM each. Standardized protein samples were electrophoresed and imaged as described in the immunoblotting description above. FIGS. 6-18 depicts the CURE-PRO-mediated BRD4 degradation for BRD monomers (JQ1 derivatives comprising of catechol linkers), and CRBN ligands, 8048 and 8049 (pomalidomide derivatives comprising boronic acid linkers) combined in a 1:1 ratio.
HeLa cells (2.5×10^6) were treated for 24 hours with the compounds solubilized in DMSO. The compounds were added at 10 μM each. Standardized protein samples were electrophoresed and imaged as described in the immunoblotting section above. FIGS. 23-27 depicts the CURE-PRO-mediated BRD4 degradation for BRD monomers (JQ1 derivatives comprising of boronic acid linkers), and CRBN ligands, 8046, 8047 and 8066 (pomalidomide derivatives comprising diol linkers) combined in a 1:1 ratio.
HeLa cells (2.5×10^6) were treated for 24 hours with the compounds solubilized in DMSO. Compounds were added at 10 μM and 100 μM each. Standardized protein samples were electrophoresed and imaged as described in the immunoblotting section above.
HeLa cells (2.5×10^6) were treated for 24 hours with the compounds solubilized in DMSO. Compounds were added at 1 nM-1 μM each. […]

[3] = co-treated 1:1 with CRBN ligand 8046, HeLa, 10 μM each
[4] = co-treated 1:1 with CRBN ligand 8047, HeLa, 10 μM each
[5] = co-treated 1:1 with CRBN ligand 8066, HeLa, 10 μM each

SMILES | Degradation of BRD4, combination with CRBN ligand 8066 (BRD4 [1]) | Degradation of BRD4, combination with CRBN ligand 8047 (BRD4 [1]) | BRD4 degradation (BRD4 [2]; [4]) | further results
COc1ccc2c(c1)C(c1ccc(Cl)cc1)=N[C@@H](CC(=O)NCCCCCNC(=O)c1ccc(B(O)O)cc1)c1nnc(C)n1-2 [BRD- E07] | √ (A black check mark indicates efficacy of 30% to 70% or higher protein degradation) |  |  | 
COc1ccc2c(c1)C(c1ccc(Cl)cc1)=N[C@@H](CC(=O)NCCNC(=O)Cc1cccc(B(O)O)c1)c1nnc(C)n1-2 [BRD- E38] |  | √ (A black check mark indicates efficacy of 30% to 70% or higher protein degradation) |  | 
CCNC(=O)C[C@@H]1N=C(c2ccc(Cl)cc2)c2cc(OCCOCCNC(=O)c3ccc(B(O)O)cc3)ccc2-n2c(C)nnc21 [BRD- E39] |  |  |  | Degradation of BRD4, combination with CRBN ligand 8046 (BRD4 [1]): √ (A black check mark indicates efficacy of 30% to 70% or higher protein degradation)
CCNC(=O)C[C@@H]1N=C(c2ccc(OCc3ccc(B(O)O)cc3)cc2)c2cc(OC)ccc2-n2c(C)nnc21 [BRD- E54] |  |  |  | Degradation of BRD4, combination with VHL ligand 8305 (BRD4 [1]): √ (A black check mark indicates efficacy of 30% to 70% or higher protein degradation)
CCNC(=O)C[C@@H]1N=C(c2ccc(Cl)cc2)c2cc(OCCOCCOCCNC(=O)c3ccc(O)c(O)c3)ccc2-n2c(C)nnc21 [BRD- N40] |  |  |  | Degradation of BRD4, combination with VHL ligand 8297 (BRD4 [1]; Table 6, aromatic 1,2-diol BRD4 ligand + 8297): √ (A black check mark indicates efficacy of 30% to 70% or higher protein degradation)
COc1ccc2c(c1)C(c1ccc(Cl)cc1)=N[C@@H](CC(=O)Nc1ccc(O)c(O)c1)c1nnc(C)n1-2 [BRD- N68] |  |  |  | Degradation of BRD4, combination with CRBN ligand 8048 (BRD4 [1]; Table 4, aromatic 1,2-diol BRD4 ligand + 8048): √ (A black check mark indicates efficacy of 30% to 70% or higher protein degradation)
COc1ccc2c(c1)C(c1ccc(Cl)cc1)=N[C@@H](CC(=O)NCCCNC(=O)c1cccc(B(O)O)c1)c1nnc(C)n1-2 [BRD-E4] | √ (A black check mark indicates efficacy of 30% to 70% or higher protein degradation) | √ (A black check mark indicates efficacy of 30% to 70% or higher protein degradation) | causes degradation of BRD4; also recorded: Degradation is noted | BRD4 degradation (BRD4 [2]; [3]): causes degradation of BRD4; also recorded: Degradation is noted; BRD4 degradation (BRD4 [2]; [5]): causes degradation of BRD4; also recorded: Degradation is noted; Degradation of BRD4, combination with CRBN ligand 8046 (BRD4 [1]): √ (A black check mark indicates efficacy of 30% to 70% or higher protein degradation)
COc1ccc2c(c1)C(c1ccc(Cl)cc1)=N[C@@H](CC(=O)NCCCCNC(=O)c1ccc(B(O)O)cc1)c1nnc(C)n1-2 [BRD-E5] | √ (A black check mark indicates efficacy of 30% to 70% or higher protein degradation) | √ (A black check mark indicates efficacy of 30% to 70% or higher protein degradation) | causes degradation of BRD4; also recorded: Degradation is noted | BRD4 degradation (BRD4 [2]; [5]): causes degradation of BRD4; also recorded: Degradation is noted
COc1ccc2c(c1)C(c1ccc(Cl)cc1)=N[C@@H](CC(=O)NCc1cccc(B(O)O)c1)c1nnc(C)n1-2 [BRD-E10] |  | √ (A black check mark indicates efficacy of 30% to 70% or higher protein degradation) |  | BRD4 degradation (BRD4 [2]; 1:1 with CRBN ligand 8046, HeLa, 10 μM and 100 μM each): only demonstrated BRD4 degradation at 100 μM; BRD4 degradation (BRD4 [2]; 1:1 with CRBN ligand 8047, HeLa, 10 μM and 100 μM each): complete degradation at 10 μM; Degradation of BRD4, combination with CRBN ligand 8046 (BRD4 [1]): √ (A black check mark indicates efficacy of 30% to 70% or higher protein degradation); Degradation of BRD4, combination with VHL ligand 8304 (BRD4 [1]; Table 3, aryl-boronic acid BRD4 ligand + 8304): √ (A black check mark indicates efficacy of 30% to 70% or higher protein degradation)
COc1ccc2c(c1)C(c1ccc(Cl)cc1)=N[C@@H](CC(=O)NCCNC(=O)Cc1ccc(B(O)O)cc1)c1nnc(C)n1-2 [BRD-E27, (4-(2-((2-(2-((4S)-6-(4-chlorophenyl)-8-methoxy-1-methyl-4H-benzo[f][1,2,4]triazolo[4,3-a][1,4]diazepin-4-yl)acetamido)ethyl)amino)-2-oxoethyl)phenyl)boronic Acid] |  | √ (A black check mark indicates efficacy of 30% to 70% or higher protein degradation) | causes degradation of BRD4 | 
COc1ccc2c(c1)C(c1ccc(Cl)cc1)=N[C@@H](CC(=O)NCCNC(=O)/C=C/c1cccc(B(O)O)c1)c1nnc(C)n1-2 [BRD-E30, (3-((E)-3-((2-(2-((4S)-6-(4-chlorophenyl)-8-methoxy-1-methyl-4H-benzo[f][1,2,4]triazolo[4,3-a][1,4]diazepin-4-yl)acetamido)ethyl)amino)-3-oxoprop-1-en-1-yl)phenyl)boronic acid] | √ (A black check mark indicates efficacy of 30% to 70% or higher protein degradation) | √ (A black check mark indicates efficacy of 30% to 70% or higher protein degradation) |  | 
CCNC(=O)C[C@@H]1N=C(c2ccc(Cl)cc2)c2cc(OCCOCCOCCNC(=O)c3cccc(B(O)O)c3)ccc2-n2c(C)nnc21 [BRD-E42] |  | √ (A black check mark indicates efficacy of 30% to 70% or higher protein degradation) | causes degradation of BRD4 | 
CCNC(=O)C[C@@H]1N=C(c2ccc(Cl)cc2)c2cc(OCCOCCOCCOCCNC(=O)c3ccc(B(O)O)cc3)ccc2-n2c(C)nnc21 [BRD-E43] | √ (A black check mark indicates efficacy of 30% to 70% or higher protein degradation) | √ (A black check mark indicates efficacy of 30% to 70% or higher protein degradation) | causes degradation of BRD4 | BRD4 degradation (BRD4 [2]; [5]): causes degradation of BRD4; also recorded: Degradation is noted
COc1ccc2c(c1)C(c1ccc(Cl)cc1)=N[C@@H](CC(=O)NCCOCCOCCNC(=O)c1ccc(B(O)O)cc1)c1nnc(C)n1-2 [BRD-E45] | √ (A black check mark indicates efficacy of 30% to 70% or higher protein degradation) |  |  | BRD4 degradation (BRD4 [2]; [5]): causes degradation of BRD4; Degradation of BRD4, combination with VHL ligand 8305 (BRD4 [1]): √ (A black check mark indicates efficacy of 30% to 70% or higher protein degradation)
COc1ccc2c(c1)C(c1ccc(Cl)cc1)=N[C@@H](CC(=O)Nc1ccc(B(O)O)cc1)c1nnc(C)n1-2 [BRD-E74, (4-(2-((4S)-6-(4-chlorophenyl)-8-methoxy-1-methyl-4H-benzo[f][1,2,4]triazolo[4,3-a][1,4]diazepin-4-yl)acetamido)phenyl)boronic acid] |  |  | causes degradation of BRD4 | BRD4 degradation (BRD4 [2]; [3]): causes degradation of BRD4; Degradation of BRD4, combination with CRBN ligand 8046 (BRD4 [1]): √ (A black check mark indicates efficacy of 30% to 70% or higher protein degradation); Degradation of BRD4, combination with MDM2 ligand 8314 (BRD4 [1]; Table 2, aryl-boronic acid BRD4 ligand + 8314): √ (A black check mark indicates efficacy of 30% to 70% or higher protein degradation)

— patent US20230285570A1, “THERAPEUTICALLY USEFUL CURE-PRO MOLECULES FOR E3 LIGASE MEDIATED DEGRADATION OF PROTEINS, AND METHODS OF MAKING AND USING THEM” (CORNELL UNIVERSITY, priority 2020, published 2023)
